The source of these data is paper PMC7956813, “Evaluation of Fused Pyrrolothiazole Systems as Correctors of Mutant CFTR Protein” (Molecules, 2021).

The target in this assay is F508del-CFTR (Homo sapiens, UniProt P13569, DEL508-508). Nature of the assay: HS-YFP iodide-influx fluorescence quenching assay, […] h incubation, Hill fit. The class given is cell-based. Particulars: read-out: half-effective concentration.
Sequence of F508del-CFTR (P13569 with tags, fused parts or gaps DEL508-508): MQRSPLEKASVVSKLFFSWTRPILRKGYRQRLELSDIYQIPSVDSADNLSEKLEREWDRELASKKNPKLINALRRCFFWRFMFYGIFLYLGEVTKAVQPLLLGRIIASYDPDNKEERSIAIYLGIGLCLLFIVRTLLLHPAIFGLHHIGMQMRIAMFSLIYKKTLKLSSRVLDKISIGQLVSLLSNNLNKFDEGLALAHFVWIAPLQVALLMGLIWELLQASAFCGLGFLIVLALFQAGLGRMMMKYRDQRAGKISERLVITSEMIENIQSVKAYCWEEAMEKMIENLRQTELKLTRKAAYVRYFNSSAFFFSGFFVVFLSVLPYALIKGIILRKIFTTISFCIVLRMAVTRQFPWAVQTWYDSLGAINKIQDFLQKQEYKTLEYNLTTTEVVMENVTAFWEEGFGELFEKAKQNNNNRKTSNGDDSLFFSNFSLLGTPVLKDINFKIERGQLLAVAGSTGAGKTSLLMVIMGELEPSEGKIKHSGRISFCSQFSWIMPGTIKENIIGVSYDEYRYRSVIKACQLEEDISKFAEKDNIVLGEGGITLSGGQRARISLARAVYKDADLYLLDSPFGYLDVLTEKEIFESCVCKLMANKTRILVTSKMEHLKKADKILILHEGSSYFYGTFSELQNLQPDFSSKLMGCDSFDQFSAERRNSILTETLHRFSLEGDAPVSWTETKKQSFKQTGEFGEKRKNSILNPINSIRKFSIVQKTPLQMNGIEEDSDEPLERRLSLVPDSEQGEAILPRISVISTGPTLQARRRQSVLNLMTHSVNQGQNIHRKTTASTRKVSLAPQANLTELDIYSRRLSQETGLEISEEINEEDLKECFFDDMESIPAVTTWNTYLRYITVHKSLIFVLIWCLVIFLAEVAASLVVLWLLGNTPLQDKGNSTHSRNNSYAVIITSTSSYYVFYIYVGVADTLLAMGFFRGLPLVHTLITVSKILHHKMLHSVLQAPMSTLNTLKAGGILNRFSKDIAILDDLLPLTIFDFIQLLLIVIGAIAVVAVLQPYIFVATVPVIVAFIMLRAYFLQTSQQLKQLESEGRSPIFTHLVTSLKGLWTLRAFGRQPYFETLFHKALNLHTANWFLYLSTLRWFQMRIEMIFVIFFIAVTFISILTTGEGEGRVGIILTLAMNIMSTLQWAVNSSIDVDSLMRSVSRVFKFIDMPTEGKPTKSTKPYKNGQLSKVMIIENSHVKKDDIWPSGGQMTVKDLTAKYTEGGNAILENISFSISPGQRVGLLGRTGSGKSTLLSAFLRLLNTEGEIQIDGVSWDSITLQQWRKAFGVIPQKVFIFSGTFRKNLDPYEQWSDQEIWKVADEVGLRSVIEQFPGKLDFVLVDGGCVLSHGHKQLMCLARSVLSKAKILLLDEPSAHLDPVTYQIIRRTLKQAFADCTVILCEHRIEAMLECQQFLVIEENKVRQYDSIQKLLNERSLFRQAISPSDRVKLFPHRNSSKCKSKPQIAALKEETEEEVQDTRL

As for `COc1ccc(Cl)cc1NC(=O)c1cc2c([nH]1)-c1nc(NC(=O)C(C)(C)C)sc1CC2` [compound 44, N-(5-Chloro-2-Methoxyphenyl)-2-[(2,2-Dimethylpropanoyl)Amino]-5,8-Dihydro-4H-[1,3]Thiazolo[5,4-g]Indole-7-Carboxamide], the EC50 is 5 µM.
